Earlier results in patent US6641797B2, “Perfluoroalkyl-containing complexes with sugar radicals, process for their production and their use” (Schering Aktiengesellschaft, priority 2000, dated 2003).
Where “and” joins values, the source holds several entries; their conditions need not be identical. Identical values can stand only once.

How the values were obtained:
[1] = 39° C., 0.47 T; cited from earlier work
[2] = 39° C., 0.47 T; cited from earlier work; remark: listed apart in the source
[3] = in vivo; cited from earlier work
[4] = system: necrotic portion of a tumor; settings: in vivo; cited from earlier work
infarcted tissue = settings: cited from earlier work

| Molecule | T^1-Relaxivity in Water [1] | T^1-Relaxivity in Plasma [2] | accumulation in the necrotic portion of a tumor [4] | other results |
| --- | --- | --- | --- | --- |
| CNC[C@H](O)[C@@H](O)[C@H](O)[C@H](O)CO.O=C([O-])CN1CCN(CC(=O)[O-])CCN(CC(=O)O)CCN(CC(=O)[O-])CC1.[Gd+3] [DOTAREM^(R)] | 3.5 L/mmol/s | 4.3 L/mmol/s |  |  |
| CNC[C@H](O)[C@@H](O)[C@H](O)[C@H](O)CO.CNC[C@H](O)[C@@H](O)[C@H](O)[C@H](O)CO.O=C([O-])CN(CCN(CC(=O)[O-])CC(=O)O)CCN(CC(=O)[O-])CC(=O)O.[Gd+3] [MAGNEVIST^(R), Gd-DTPA] | 3.8 L/mmol/s | 4.8 L/mmol/s |  |  |
| O=S(=O)([O-])c1ccc(-c2c3nc(c(-c4ccc(S(=O)(=O)[O-])cc4)c4ccc([n-]4)c(-c4ccc(S(=O)(=O)[O-])cc4)c4nc(c(-c5ccc(S(=O)(=O)[O-])cc5)c5ccc2[n-]5)C=C4)C=C3)cc1.[Mn+3] [Mn-TPPS, manganese-5,10,15,20-tetrakis(4-sulfonatophenyl)-porphyrin] |  |  | selectively accumulates in the necrotic portion of a tumor | LD50 [3]: approximately 0.5 mmol/kg |
| CNC(=O)CN(CCN(CCN(CC(=O)[O-])CC(=O)NC)CC(=O)[O-])CC(=O)[O-].[Gd+3] [OMNISCAN^(R)] | 3.8 L/mmol/s | 4.4 L/mmol/s |  |  |
| C[n+]1ccc(-c2c3nc(c(-c4cc[n+](C)cc4)c4ccc([n-]4)c(-c4cc[n+](C)cc4)c4nc(c(-c5cc[n+](C)cc5)c5ccc2[n-]5)C=C4)C=C3)cc1.[111In+3] [TMPyP, ^111In-5,10,15,20-tetrakis-(4-N-methyl-pyridinium)-porphyrin] |  |  | does not accumulate in the necrotic portion |  |
| gadolinium-mesoporphyrin [Gd-MP] |  |  |  | ratio of the signal intensities in MRI, infarcted in comparison to healthy tissue (infarcted tissue; kidney and myocardium): 2.10 and 2.19; metal content of infarcted tissue versus non-infarcted, myocardium (infarcted tissue; myocardium (Example 1 of WO 95/31219)): nine times as large |
